Assays:
C57BL/6 male mice [1] = experiment: Antinociceptive tolerance, repeated injection over 7 days, hot-plate assay; format: in vivo; conditions: DK 20 and 40 mg/kg daily over 7 days, compared with morphine 5 mg/kg
Procedure: Subsequent tolerance assessment was conducted through a repeated-injection protocol employing the hot-plate assay. Mice were injected intraperitoneally (5 mL/kg) with the solvent mixture, morphine (5 mg/kg) or DK (20, 40 mg/kg) daily for a continuous seven-day period. The diminishment of the antinociception of drugs in the assay was employed to evaluate the tolerance, with latency measured one hour after drug administration throughout the week.

histamine receptor H1 = target: T1, histamine receptor H1 (Homo sapiens, UniProt P35367); experiment: DMR desensitization assay, A431, probe histamine; format: cell-based; conditions: 100 μM DK
T1 construct: endogenous in cells; host or cells: A431
T1 sequence (P35367 whole entry): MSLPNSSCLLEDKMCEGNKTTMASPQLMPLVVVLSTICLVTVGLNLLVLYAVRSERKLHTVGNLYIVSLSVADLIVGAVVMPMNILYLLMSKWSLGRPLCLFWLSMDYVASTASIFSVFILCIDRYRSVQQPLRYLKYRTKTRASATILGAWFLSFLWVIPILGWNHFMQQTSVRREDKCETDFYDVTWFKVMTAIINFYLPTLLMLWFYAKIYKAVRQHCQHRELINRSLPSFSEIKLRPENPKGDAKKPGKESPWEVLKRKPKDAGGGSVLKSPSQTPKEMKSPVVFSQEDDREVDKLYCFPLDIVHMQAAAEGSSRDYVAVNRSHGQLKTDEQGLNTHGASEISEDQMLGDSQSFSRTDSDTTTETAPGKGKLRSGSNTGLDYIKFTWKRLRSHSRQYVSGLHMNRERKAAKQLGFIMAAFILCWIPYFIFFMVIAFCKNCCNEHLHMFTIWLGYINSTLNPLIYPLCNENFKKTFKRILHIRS
Procedure: (§1) DMR assays were performed using an Epic® BT system (Corning, NY, USA). All used cell lines were directly seeded in Epic 384-well biosensor microplates with a seeding density of 25,000 cells per well. After being cultured for about 22 h, the cells formed a monolayer with a confluency of about 95 % in the cell culture medium. Then the cells were manually washed using assay buffer (1 × HBSS buffer, 10 mM HEPES, pH = 7.4) and maintained in 30 μL of the assay buffer for 1 h. All samples were dissolved in DMSO and diluted freshly with the assay buffer containing 0.1 % BSA.
(§2) The receptor selectivity was evaluated against a set of G protein-coupled receptors (GPCRs), including opioid receptor (Delta/Kappa/NOP), dopamine receptor (D1/D2), orphan receptor (GPR35), adrenergic receptor (α2A/β2), serotonin receptor (5HT2A), histamine receptor (H1) and cannabinoid receptor (CB1). Following a 1-hour pretreatment with DK, a 2-min baseline was established before introducing probes and monitoring DMR signals for another hour. The cells and probes were as follows: Delta, HEK293-Delta, SNC162; Kappa, HEK293-Kappa, ICI199441; NOP, HEK293-NOP, MCOPPB; D1, HEK293-D1, dopamine; D2, HEK293-D2, dopamine; GPR35, CHO-K1-hGPR35, zaprinast; 5HT2A, HEK293-5HT2A, 5-hydroxytryptamine; α2A, HEK293-α2A, L-Noradrenaline; β2, A431, isoprenaline; H1, A431, histamine; CB1, CHO-K1-CB1, CP 55940. […]

dopamine receptor D1 = target: T2, dopamine receptor D1 (Homo sapiens, UniProt P21728); experiment: DMR desensitization assay, HEK293-D1, probe dopamine; format: cell-based; conditions: 100 μM DK
T2 construct: expressed in transfected cells; host or cells: HEK293-D1
T2 sequence (P21728 whole entry): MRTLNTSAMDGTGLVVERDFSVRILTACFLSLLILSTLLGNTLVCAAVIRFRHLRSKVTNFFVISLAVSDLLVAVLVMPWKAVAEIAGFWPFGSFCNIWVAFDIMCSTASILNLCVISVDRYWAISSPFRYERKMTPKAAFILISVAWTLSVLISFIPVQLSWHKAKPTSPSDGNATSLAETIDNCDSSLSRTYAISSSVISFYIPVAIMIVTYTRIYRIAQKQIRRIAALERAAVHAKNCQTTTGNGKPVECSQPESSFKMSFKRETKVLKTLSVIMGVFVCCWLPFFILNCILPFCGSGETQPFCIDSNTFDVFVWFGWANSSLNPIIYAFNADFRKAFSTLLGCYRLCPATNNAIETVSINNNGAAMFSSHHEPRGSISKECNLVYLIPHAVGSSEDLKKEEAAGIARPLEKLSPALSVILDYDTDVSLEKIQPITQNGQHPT
Procedure: as §1, §2

mu opioid receptor (MOR) = target: T3, mu opioid receptor (MOR) (Homo sapiens, UniProt P35372); experiment: DMR assay in HEK293T-Mu cells (agonist, desensitization, antagonist); format: cell-based
T3 construct: expressed in transfected cells; host or cells: HEK293T-Mu
T3 sequence (P35372 whole entry): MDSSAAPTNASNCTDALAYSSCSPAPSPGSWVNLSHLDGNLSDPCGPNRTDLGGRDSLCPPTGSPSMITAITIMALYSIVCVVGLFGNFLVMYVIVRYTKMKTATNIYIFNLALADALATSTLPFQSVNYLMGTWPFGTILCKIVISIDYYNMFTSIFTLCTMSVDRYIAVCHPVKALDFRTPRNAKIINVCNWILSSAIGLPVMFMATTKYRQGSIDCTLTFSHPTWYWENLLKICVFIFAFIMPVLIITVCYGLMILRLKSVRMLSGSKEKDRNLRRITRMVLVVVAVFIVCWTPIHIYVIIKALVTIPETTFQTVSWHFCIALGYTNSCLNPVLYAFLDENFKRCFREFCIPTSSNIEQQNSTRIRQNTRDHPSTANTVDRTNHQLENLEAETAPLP
Procedure: as §1
(§3) The DMR assays were conducted as follows. […] In the case of the DMR desensitization assay, cells were pretreated with analytes for one hour before introducing a specific agonist at the indicated concentration, and the agonist-induced DMR signals were monitored for one hour. Finally, for the DMR antagonist assay, cells underwent a 1-hour pretreatment with an antagonist before the addition of a specific agonist at the indicated concentration, and subsequent DMR signals were recorded over one hour.

dopamine receptor D2 = target: T4, dopamine receptor D2 (Homo sapiens, UniProt P14416); experiment: DMR desensitization assay, HEK293-D2, probe dopamine; format: cell-based; conditions: 100 μM DK
T4 construct: expressed in transfected cells; host or cells: HEK293-D2
T4 sequence (P14416 whole entry): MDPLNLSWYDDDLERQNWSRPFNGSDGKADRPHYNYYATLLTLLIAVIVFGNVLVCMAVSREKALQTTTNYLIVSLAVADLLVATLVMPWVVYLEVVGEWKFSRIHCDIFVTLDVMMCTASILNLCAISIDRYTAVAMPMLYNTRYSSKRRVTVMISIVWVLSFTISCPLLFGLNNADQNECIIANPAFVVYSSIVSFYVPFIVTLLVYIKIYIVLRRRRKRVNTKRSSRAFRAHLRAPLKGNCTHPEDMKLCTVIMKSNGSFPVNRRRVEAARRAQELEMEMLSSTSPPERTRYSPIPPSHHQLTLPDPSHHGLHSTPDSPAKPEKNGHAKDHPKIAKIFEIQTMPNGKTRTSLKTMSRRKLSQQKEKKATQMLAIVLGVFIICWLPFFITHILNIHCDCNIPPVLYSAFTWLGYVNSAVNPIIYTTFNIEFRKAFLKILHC
Procedure: as §1, §2

M4R = target: T5, M4R (Homo sapiens, UniProt P08173); experiment: FLIPR assay in HEK293-M4 cells (carbachol-induced Ca2+); format: cell-based; conditions: DK pretreatment one hour
T5 construct: expressed in transfected cells
T5 sequence (P08173 whole entry): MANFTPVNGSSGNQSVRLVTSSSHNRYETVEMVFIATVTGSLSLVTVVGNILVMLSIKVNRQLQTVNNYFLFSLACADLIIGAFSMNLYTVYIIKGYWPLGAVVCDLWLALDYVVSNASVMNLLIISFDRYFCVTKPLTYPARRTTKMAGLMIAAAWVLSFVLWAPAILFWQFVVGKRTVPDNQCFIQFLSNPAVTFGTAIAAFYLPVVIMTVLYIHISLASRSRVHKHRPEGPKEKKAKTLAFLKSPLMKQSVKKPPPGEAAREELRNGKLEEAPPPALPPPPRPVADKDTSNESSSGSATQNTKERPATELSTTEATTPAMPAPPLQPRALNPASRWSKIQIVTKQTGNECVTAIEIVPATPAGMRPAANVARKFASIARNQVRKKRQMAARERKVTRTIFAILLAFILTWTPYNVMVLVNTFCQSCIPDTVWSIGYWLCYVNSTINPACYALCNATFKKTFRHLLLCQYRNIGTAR
Procedure: FLIPR assay was carried out as reported earlier. Cell lines were seeded in 96-well plates with black walls (Greiner, USA) at 8.0 × 10^4 cells per well. After approximately 22 h of incubation, the cells were exposed to Calcium-6 dye (Molecular Devices, USA) in HBSS buffer supplemented with 20 mM HEPES (pH 7.4) at 37°C for one hour. Samples, redissolved in DMSO and housed in 96-well drug plates, underwent dilution with FLIPR buffer and subsequent automated introduction to the cells. […] […] Results were presented as fluorescence (arbitrary units) plotted against time.

NOP opioid receptor = target: T6, NOP opioid receptor (Homo sapiens, UniProt P41146); experiment: DMR agonist and desensitization assay in HEK293-NOP cells; format: cell-based
T6 construct: expressed in transfected cells; host or cells: HEK293-NOP
T6 sequence (P41146 whole entry): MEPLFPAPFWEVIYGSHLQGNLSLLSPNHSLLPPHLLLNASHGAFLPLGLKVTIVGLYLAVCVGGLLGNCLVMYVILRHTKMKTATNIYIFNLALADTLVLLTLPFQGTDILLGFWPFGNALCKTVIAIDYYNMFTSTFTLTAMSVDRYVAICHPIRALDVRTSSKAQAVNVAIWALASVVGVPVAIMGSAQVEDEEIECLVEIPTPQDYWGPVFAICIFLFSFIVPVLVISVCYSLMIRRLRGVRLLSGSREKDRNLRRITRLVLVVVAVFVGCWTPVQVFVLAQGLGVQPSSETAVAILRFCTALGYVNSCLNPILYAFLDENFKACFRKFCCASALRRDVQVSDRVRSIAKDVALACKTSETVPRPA
Procedure: as §1, §3
The receptor selectivity was evaluated against a set of G protein-coupled receptors (GPCRs), including opioid receptor (Delta/Kappa/NOP), dopamine receptor (D1/D2), orphan receptor (GPR35), adrenergic receptor (α2A/β2), serotonin receptor (5HT2A), histamine receptor (H1) and cannabinoid receptor (CB1). […]

cannabinoid receptor CB1 = target: T7, cannabinoid receptor CB1 (Homo sapiens, UniProt P21554); experiment: DMR desensitization assay, CHO-K1-CB1, probe CP 55940; format: cell-based; conditions: 100 μM DK
T7 construct: expressed in transfected cells; host or cells: CHO-K1-CB1
T7 sequence (P21554 whole entry): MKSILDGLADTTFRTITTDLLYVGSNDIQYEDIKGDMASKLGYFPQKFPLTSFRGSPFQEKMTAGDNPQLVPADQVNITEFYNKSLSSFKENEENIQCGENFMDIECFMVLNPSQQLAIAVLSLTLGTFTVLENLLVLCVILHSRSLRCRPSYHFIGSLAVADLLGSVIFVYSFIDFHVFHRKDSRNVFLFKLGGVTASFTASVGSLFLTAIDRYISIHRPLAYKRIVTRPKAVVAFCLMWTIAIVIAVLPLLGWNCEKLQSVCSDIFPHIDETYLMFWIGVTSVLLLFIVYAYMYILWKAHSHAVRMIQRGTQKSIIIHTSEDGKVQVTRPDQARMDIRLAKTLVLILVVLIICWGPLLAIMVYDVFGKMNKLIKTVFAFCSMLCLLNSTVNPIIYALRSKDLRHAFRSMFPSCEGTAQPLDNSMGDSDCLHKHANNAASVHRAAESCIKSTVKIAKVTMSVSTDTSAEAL
Procedure: as §1, §2

C57BL/6 male mice [2] = experiment: Hot-plate assay (acute pain); format: in vivo
Procedure: The hot-plate test in mice was conducted following previously established method. Six-week-old C57BL/6 male mice were used in hot-plate assay (n = 6). Hot-plate response latency (55°C) after drug treatment was used to measure antinociceptive effect, where response was defined by the animal either by licking paws, flicking paws or jumping. Mice were exposed to the hot plate (Ugo Basile model 7280, Comerio, Italy) for a maximum of 20 s to avoid tissue damage. After three days’ baseline measure, mice were injected intraperitoneally (5 mL/kg) with the solvent mixture, morphine (5 mg/kg) or DK (20, 40 mg/kg) and latency was tested 0.5-, 1-, 2-, 3- and 4- hours post-administration. Evaluation of MOR agonistic and M3R antagonistic activity of DK, naloxone (2 mg/kg) and oxotremorine (0.4 mg/kg) were first injected intraperitoneally, immediately followed by the injection of morphine (5 mg/kg, evaluation of MOR) or DK (20 mg/kg).

C57BL/6 male mice [3] = experiment: Formalin paw test; format: in vivo
Procedure: The formalin test in mice was conducted following established procedures. Six-week-old C57BL/6 male mice were used in […] (n = 6). Mice were individually acclimated in a 4-liter glass beaker for 30 min prior to the test. Solvent mixture, […], morphine (5 mg/kg), or DK (20, 40 mg/kg) were injected intraperitoneally (5 mL/kg) 15 min prior to formalin injection. Formalin solution (5 %, 25 μL) was injected into the dorsal surface of the right hind paw using a 50 μL Hamilton syringe with a 30-gauge needle. […] Evaluation of MOR agonistic activity of dihydrokoumine, naloxone (2 mg/kg) was first injected intraperitoneally, immediately followed by the injection of morphine (5 mg/kg) or DK (20 mg/kg).

SMILES: C=CC12CN(C)C3CC14c1ccccc1NC4C1CC2C3CO1 (stereo not drawn) [DK]
- antinociceptive tolerance (C57BL/6 male mice [1]): no antinociceptive tolerance was observed
- reduction of probe DMR response (desensitization) (histamine receptor H1): almost unable to reduce the response
- reduction of probe DMR response (desensitization) (dopamine receptor D1): almost unable to reduce the response
- maximum DMR response compared with endomorphin-1 (mu opioid receptor (MOR)): half of the maximum DMR response of endomorphin-1
- DMR response after naloxone pretreatment (mu opioid receptor (MOR); 100 μM DK, naloxone pretreatment one hour): could be antagonized by naloxone
- EC50 (mu opioid receptor (MOR); DMR agonist assay, read-out: EC50 of DMR response): 16.3 ± 1.05 µM
- concentration-dependent DMR response at MOR compared with purified DK (mu opioid receptor (MOR); semisynthesized material): its activity was close to that of purified DK
- reduction of probe DMR response (desensitization) (dopamine receptor D2): almost unable to reduce the response
- inhibition of carbachol-induced Ca2+ response (M4R): could not concentration-dependently inhibit
- DMR agonist response (NOP opioid receptor; HEK293-NOP cells): unable to trigger a concentration-dependent DMR response
- probe-induced DMR response after DK pretreatment (NOP opioid receptor; HEK293-NOP, 25 nM MCOPPB, pretreatment one hour): had little effect on the DMR response produced by the respective probes
- reduction of probe DMR response (desensitization) (cannabinoid receptor CB1): almost unable to reduce the response
- effect of naloxone on pain threshold in hot plate assay (C57BL/6 male mice [2]; DK 20 mg/kg, naloxone 2 mg/kg): naloxone failed to decrease the pain threshold of DK
- effect of oxotremorine on antinociception in hot plate assay (C57BL/6 male mice [2]; DK 20 mg/kg, oxotremorine 0.4 mg/kg): oxotremorine markedly diminished the antinociceptive efficacy of DK
- duration of antinociception (C57BL/6 male mice [2]; DK 20, 40 mg/kg i.p.): at least 3 h
- antinociception (hot-plate response latency) (C57BL/6 male mice [2]; DK 20, 40 mg/kg i.p., 55°C): potent antinociception in a dose-dependent manner
- effect of naloxone on antinociception in formalin test (C57BL/6 male mice [3]; DK 20 mg/kg, naloxone 2 mg/kg): Naloxone antagonized the antinociception of DK
- licking time in Phase I and Phase II (C57BL/6 male mice [3]; DK 20, 40 mg/kg i.p., formalin 5 %): remarkable decrease in the licking time in Phase I at both doses and in Phase II at high doses
